Data: patent US12319664B2, “Herbicidally active 3-phenylisoxazoline-5-carboxamides of cyclopentenylcarboxylic acid derivatives” (Bayer Aktiengesellschaft, priority 2018, dated 2025)

How the values were obtained:
[1] = system: ECHCG; assay: Post-emergence herbicidal action against ECHCG; assay type: in vivo, Echinochloa crus-galli; conditions: application rate 80 g/ha, rated visually after about 3 weeks
In short: (§1)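 One-leaf-stage plants (2–3 weeks after sowing in sandy loam) received a foliar spray of WP- or EC-formulated compound in water with 0.5% additive at 600 l/ha. Plants stayed under optimum greenhouse conditions for about 3 weeks before visual scoring against controls.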

[2] = system: AMARE; assay: Post-emergence herbicidal action against AMARE; assay type: in vivo, Amaranthus retroflexus; conditions: application rate 80 g/ha, rated visually about 3 weeks after treatment
In short: as §1

[3] = system: MATIN; assay: Post-emergence herbicidal action against MATIN; assay type: in vivo, Matricaria inodora; conditions: application rate 80 g/ha, rated visually about 3 weeks after treatment
Protocol: [table] 2. Post-emergence herbicidal action against harmful plants and crop plant compatibility Seeds of monocotyledonous and dicotyledonous weeds and crop plants are placed in sandy loam in plastic or wood-fibre pots, covered with soil and cultivated in a greenhouse under controlled growth conditions. 2 to 3 weeks after sowing, the test plants are treated at the one-leaf stage. The compounds of the invention, formulated in the form of wettable powders (WP) or as emulsion concentrates (EC), are then sprayed onto the green parts of the plants as aqueous suspension or emulsion with addition of 0.5% additive at a water application rate of 600 l/ha (converted). After the test plants have been kept in the greenhouse under optimum growth conditions for about 3 weeks, the activity of the preparations is rated visually in comparison to untreated controls. For example, 100% activity=the plants have died, 0% activity=like control plants.

[4] = system: LOLRI; assay: Post-emergence herbicidal action against LOLRI; assay type: in vivo, Lolium rigidum; conditions: application rate 80 g/ha, rated visually after about 3 weeks
In short: as §1

[5] = system: HORMU; assay: Post-emergence herbicidal action against HORMU; assay type: in vivo, Hordeum murinum; conditions: application rate 80 g/ha
In short: as §1

[6] = system: AVEFA; assay: Post-emergence herbicidal action against AVEFA; assay type: in vivo, Avena fatua; conditions: application rate 80 g/ha, rated visually after about 3 weeks
In short: as §1

[7] = system: POLCO; assay: Post-emergence herbicidal action against POLCO; assay type: in vivo, Polygonum convolvulus; conditions: application rate 80 g/ha, rated visually about 3 weeks after treatment
In short: as §1

[8] = system: VERPE; assay: Post-emergence herbicidal action against VERPE; assay type: in vivo, Veronica persica; conditions: application rate 80 g/ha
In short: as §1

[9] = system: ABUTH; assay: Post-emergence herbicidal action against ABUTH; assay type: in vivo, Abutilon theophrasti; conditions: application rate 80 g/ha, rated visually about 3 weeks after treatment
In short: as §1

[10] = system: ALOMY; assay: Post-emergence herbicidal action against ALOMY; assay type: in vivo, Alopecurus myosuroides; conditions: application rate 80 g/ha, rated visually after about 3 weeks
In short: as §1

[11] = system: SETVI; assay: Post-emergence herbicidal action against SETVI; assay type: in vivo, Setaria viridis; conditions: application rate 80 g/ha, rated visually after about 3 weeks
In short: as §1

[12] = system: STEME; assay: Post-emergence herbicidal action against STEME; assay type: in vivo, Stellaria media; conditions: application rate 80 g/ha, rated visually about 3 weeks after treatment
In short: as §1

[13] = system: PHBPU; assay: Post-emergence herbicidal action against PHBPU; assay type: in vivo, Pharbitis purpurea; conditions: application rate 80 g/ha, rated visually about 3 weeks after treatment
In short: as §1

[14] = system: VIOTR; assay: Post-emergence herbicidal action against VIOTR; assay type: in vivo, Viola tricolor; conditions: application rate 80 g/ha, rated visually about 3 weeks after treatment
In short: as §1

SMILES: C=CC1(C(=O)N[C@H]2C=C[C@@H](C(=O)OCCOC)C2)CC(c2cc(F)cc(F)c2)=NO1 (some centres unmarked) [Example I-018]
- Herbicidal action against [%] ECHCG [1]: 100%
- Herbicidal action against [%] AMARE [2]: 90%
- Herbicidal action against [%] MATIN [3]: 80%
- Herbicidal action against [%] LOLRI [4]: 100%
- Herbicidal action against [%] HORMU [5]: 90%
- Herbicidal action against [%] AVEFA [6]: 100%
- Herbicidal action against [%] POLCO [7]: 100%
- Herbicidal action against [%] VERPE [8]: 90%
- Herbicidal action against [%] ABUTH [9]: 90%
- Herbicidal action against [%] ALOMY [10]: 100%
- Herbicidal action against [%] SETVI [11]: 90%

SMILES: O=C(OCC(F)(F)F)C1C=CC(NC(=O)C2(C(F)(F)F)CC(c3cc(Cl)cc(Cl)c3)=NO2)C1 (mixture of isomers) [Example I-041]
- Herbicidal action against [%] ECHCG [1]: 80%
- Herbicidal action against [%] MATIN [3]: 80%
- Herbicidal action against [%] LOLRI [4]: 80%
- Herbicidal action against [%] HORMU [5]: 90%
- Herbicidal action against [%] AVEFA [6]: 90%
- Herbicidal action against [%] STEME [12]: 80%
- Herbicidal action against [%] ABUTH [9]: 80%

SMILES: Cc1cc(F)cc(C2=NOC(C(=O)N[C@H]3C=C[C@@H](C(=O)OCCCl)C3)(C(F)(F)F)C2)c1 (some centres unmarked) [Example I-031]
- Herbicidal action against [%] ECHCG [1]: 80%
- Herbicidal action against [%] AMARE [2]: 90%
- Herbicidal action against [%] MATIN [3]: 80%
- Herbicidal action against [%] LOLRI [4]: 100%
- Herbicidal action against [%] HORMU [5]: 90%
- Herbicidal action against [%] AVEFA [6]: 90%
- Herbicidal action against [%] POLCO [7]: 90%
- Herbicidal action against [%] PHBPU [13]: 80%
- Herbicidal action against [%] VERPE [8]: 80%
- Herbicidal action against [%] ALOMY [10]: 90%
- Herbicidal action against [%] SETVI [11]: 90%

SMILES: O=C(OCCCl)C1C=CC(NC(=O)C2(C(F)(F)F)CC(c3cc(Cl)cc(Cl)c3)=NO2)C1 (mixture of isomers) [Example I-040]
- Herbicidal action against [%] ECHCG [1]: 90%
- Herbicidal action against [%] MATIN [3]: 80%
- Herbicidal action against [%] LOLRI [4]: 90%
- Herbicidal action against [%] HORMU [5]: 90%
- Herbicidal action against [%] AVEFA [6]: 90%
- Herbicidal action against [%] STEME [12]: 90%
- Herbicidal action against [%] VERPE [8]: 80%
- Herbicidal action against [%] ABUTH [9]: 80%
- Herbicidal action against [%] ALOMY [10]: 90%

SMILES: C=CC1(C(=O)NC2C=CC(C(=O)O)C2)CC(c2cc(F)cc(F)c2)=NO1 (centres unmarked) [Example I-011]
- Herbicidal action against [%] ECHCG [1]: 90%
- Herbicidal action against [%] MATIN [3]: 80%
- Herbicidal action against [%] LOLRI [4]: 90%
- Herbicidal action against [%] HORMU [5]: 80%
- Herbicidal action against [%] AVEFA [6]: 90%
- Herbicidal action against [%] STEME [12]: 90%
- Herbicidal action against [%] POLCO [7]: 80%
- Herbicidal action against [%] VERPE [8]: 80%
- Herbicidal action against [%] ALOMY [10]: 90%
- Herbicidal action against [%] SETVI [11]: 80%

SMILES: CCOC(=O)C1C=CC(NC(=O)C2(C(F)(F)F)CC(c3cc(C)cc(C)c3)=NO2)C1 (mixture of isomers) [Example I-053]
- Herbicidal action against [%] MATIN [3]: 80%
- Herbicidal action against [%] LOLRI [4]: 90%
- Herbicidal action against [%] AVEFA [6]: 90%
- Herbicidal action against [%] STEME [12]: 90%
- Herbicidal action against [%] PHBPU [13]: 80%
- Herbicidal action against [%] VERPE [8]: 80%
- Herbicidal action against [%] ALOMY [10]: 90%

SMILES: COC(=O)C1C=CC(NC(=O)C2(C(F)(F)F)CC(c3cccc(Cl)c3)=NO2)C1 (mixture of isomers) [Example I-046]
- Herbicidal action against [%] ECHCG [1]: 90%
- Herbicidal action against [%] AMARE [2]: 80%
- Herbicidal action against [%] MATIN [3]: 80%
- Herbicidal action against [%] LOLRI [4]: 100%
- Herbicidal action against [%] HORMU [5]: 100%
- Herbicidal action against [%] AVEFA [6]: 90%
- Herbicidal action against [%] STEME [12]: 90%
- Herbicidal action against [%] VERPE [8]: 80%
- Herbicidal action against [%] ABUTH [9]: 90%
- Herbicidal action against [%] ALOMY [10]: 90%
- Herbicidal action against [%] SETVI [11]: 80%

SMILES: CCOC(=O)C1C=CC(NC(=O)C2(C#N)CC(c3cc(F)cc(F)c3)=NO2)C1 (centres unmarked) [Example I-104]
- Herbicidal action against [%] ECHCG [1]: 80%
- Herbicidal action against [%] AMARE [2]: 80%
- Herbicidal action against [%] MATIN [3]: 80%
- Herbicidal action against [%] LOLRI [4]: 90%
- Herbicidal action against [%] HORMU [5]: 90%
- Herbicidal action against [%] AVEFA [6]: 80%
- Herbicidal action against [%] STEME [12]: 80%
- Herbicidal action against [%] POLCO [7]: 90%
- Herbicidal action against [%] VERPE [8]: 80%
- Herbicidal action against [%] ALOMY [10]: 90%

SMILES: CCOC(=O)C1C=CC(NC(=O)C2(C(F)(F)F)CC(c3cccc(Cl)c3)=NO2)C1 (mixture of isomers) [Example I-042]
- Herbicidal action against [%] ECHCG [1]: 90%
- Herbicidal action against [%] MATIN [3]: 80%
- Herbicidal action against [%] LOLRI [4]: 100%
- Herbicidal action against [%] HORMU [5]: 90%
- Herbicidal action against [%] AVEFA [6]: 100%
- Herbicidal action against [%] STEME [12]: 90%
- Herbicidal action against [%] VERPE [8]: 80%
- Herbicidal action against [%] ABUTH [9]: 80%
- Herbicidal action against [%] ALOMY [10]: 100%
- Herbicidal action against [%] SETVI [11]: 80%

SMILES: CC1(C(=O)NC2C=CC(C(=O)OCCCl)C2)CC(c2cc(F)cc(C#N)c2)=NO1 (mixture of isomers) [Example I-083]
- Herbicidal action against [%] ECHCG [1]: 90%
- Herbicidal action against [%] AMARE [2]: 90%
- Herbicidal action against [%] LOLRI [4]: 100%
- Herbicidal action against [%] HORMU [5]: 100%
- Herbicidal action against [%] AVEFA [6]: 100%
- Herbicidal action against [%] STEME [12]: 90%
- Herbicidal action against [%] POLCO [7]: 90%
- Herbicidal action against [%] PHBPU [13]: 90%
- Herbicidal action against [%] VERPE [8]: 90%
- Herbicidal action against [%] VIOTR [14]: 90%
- Herbicidal action against [%] ABUTH [9]: 90%
- Herbicidal action against [%] ALOMY [10]: 100%
- Herbicidal action against [%] SETVI [11]: 80%

SMILES: C=CC1(C(=O)N[C@H]2CC=C(C(=O)OC)C2)CC(c2cc(F)cc(F)c2)=NO1 (some centres unmarked) [III-08]
- Herbicidal action against [%] ECHCG [1]: 90%
- Herbicidal action against [%] AMARE [2]: 80%
- Herbicidal action against [%] LOLRI [4]: 90%
- Herbicidal action against [%] HORMU [5]: 100%
- Herbicidal action against [%] AVEFA [6]: 100%
- Herbicidal action against [%] STEME [12]: 90%
- Herbicidal action against [%] POLCO [7]: 80%
- Herbicidal action against [%] PHBPU [13]: 80%
- Herbicidal action against [%] VERPE [8]: 90%
- Herbicidal action against [%] VIOTR [14]: 80%
- Herbicidal action against [%] ABUTH [9]: 80%
- Herbicidal action against [%] ALOMY [10]: 90%
- Herbicidal action against [%] SETVI [11]: 90%

SMILES: N#Cc1cc(F)cc(C2=NOC(C(=O)NC3C=CC(C(=O)O)C3)(C(F)(F)F)C2)c1 (mixture of isomers) [Example I-090]
- Herbicidal action against [%] ECHCG [1]: 80%
- Herbicidal action against [%] AMARE [2]: 90%
- Herbicidal action against [%] LOLRI [4]: 100%
- Herbicidal action against [%] HORMU [5]: 100%
- Herbicidal action against [%] AVEFA [6]: 100%
- Herbicidal action against [%] STEME [12]: 90%
- Herbicidal action against [%] POLCO [7]: 90%
- Herbicidal action against [%] PHBPU [13]: 90%
- Herbicidal action against [%] VERPE [8]: 90%
- Herbicidal action against [%] VIOTR [14]: 90%
- Herbicidal action against [%] ABUTH [9]: 90%
- Herbicidal action against [%] ALOMY [10]: 100%
- Herbicidal action against [%] SETVI [11]: 90%
